In ChEMBL document CHEMBL1201862, “PubChem BioAssay data set” (2004):
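Where inhibition never reached the appropriate level, the endpoint shown equals the highest concentration tested. Otherwise, values were interpolated linearly from a five-concentration, 48-hour dose response in 96-well plates. GI50: concentration for 50% inhibition of growth.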 Activity calls are given as the source filed them. Rule as the data show it: active = GI50 up to about 1.1 µM and inactive = higher.

What was measured:
Assay in all cases: inhibition of tumour cell growth, NCI panel, 48 h
HCT-15 = test system: HCT-15
SK-MEL-5 = test system: SK-MEL-5
HOP-62 = test system: HOP-62
BT-549 = test system: BT-549
MDA-MB-231 = test system: MDA-MB-231
HCC 2998 = test system: HCC 2998
SF-295 = test system: SF-295
CCRF-CEM = test system: CCRF-CEM
COLO 205 = test system: COLO 205
NCI-H460 = test system: NCI-H460
UO-31 = test system: UO-31
Hs-578T = test system: Hs-578T
UACC-257 = test system: UACC-257
TK-10 = test system: TK-10
PC-3 = test system: PC-3
KM12 = test system: KM12
HL-60 = test system: HL-60
SR = test system: SR
MDA-N = test system: MDA-N

| SMILES | GI50 (HCT-15) | GI50 (SK-MEL-5) | GI50 (HOP-62) | GI50 (BT-549) | GI50 (MDA-MB-231) | GI50 (HCC 2998) | GI50 (SF-295) | GI50 (CCRF-CEM) | GI50 (COLO 205) | GI50 (NCI-H460) | GI50 (UO-31) | GI50 (Hs-578T) | GI50 (UACC-257) | GI50 (TK-10) | GI50 (PC-3) | GI50 (KM12) | GI50 (HL-60) | GI50 (SR) | GI50 (MDA-N) |
| --- | --- | --- | --- | --- | --- | --- | --- | --- | --- | --- | --- | --- | --- | --- | --- | --- | --- | --- | --- |
| COc1cc2nc(-c3cccs3)nc(N3C(c4ccc(O)cc4)=NNC(=O)c4ccccc43)c2cc1OC | 32 µM | 46.8 µM (inactive) | 56.5 µM (inactive) | 21 µM (inactive) | 18.9 µM (inactive) | 18.6 µM (inactive) | 19.5 µM (inactive) | 4.99 µM (inactive) | 20.8 µM (inactive) | 26.5 µM (inactive) | 19 µM (inactive) | 42.9 µM (inactive) | 28.4 µM (inactive) | 30.5 µM (inactive) | 25.6 µM (inactive) | 32.7 µM (inactive) | – | – | – |
| Nc1nc(Nc2cc(F)c(Cl)c(F)c2)cc(=O)[nH]1 | > 100 µM | 53.5 µM (inactive) | > 100 µM (inactive) | 60.3 µM (inactive) | 68.2 µM (inactive) | 15.9 µM (inactive) | 44.9 µM (inactive) | 66.8 µM (inactive) | > 100 µM (inactive) | > 100 µM (inactive) | – | 18.1 µM (inactive) | > 100 µM (inactive) | > 100 µM (inactive) | > 100 µM (inactive) | 27 µM (inactive) | 44.3 µM (inactive) | – | – |
| COc1cc(/C=C/c2ccc(O)c(OC)c2)cc(OC)c1 | 14.3 µM | 23.9 µM (inactive) | 50.6 µM (inactive) | – | – | 49.7 µM (inactive) | 17.7 µM (inactive) | 14.4 µM (inactive) | > 100 µM (inactive) | 19 µM (inactive) | 20 µM (inactive) | 14.2 µM (inactive) | 24.8 µM (inactive) | 20.2 µM (inactive) | 10.3 µM (inactive) | 20.8 µM (inactive) | 12.6 µM (inactive) | 25.8 µM (inactive) | 17.4 µM (inactive) |
| COc1cc(C(C)(C)C)c(OC(=O)/C=C/C(=O)O/C=C/[N+](=O)[O-])c(C(C)(C)C)c1 | 17.8 µM | 35.3 µM (inactive) | > 100 µM (inactive) | – | 33.9 µM (inactive) | > 100 µM (inactive) | > 100 µM (inactive) | 10.2 µM (inactive) | 42.9 µM (inactive) | 66.4 µM (inactive) | 28.1 µM (inactive) | 28.6 µM (inactive) | 47.6 µM (inactive) | 85.3 µM (inactive) | – | 16.8 µM (inactive) | 0.324 µM (active) | 63.8 µM (inactive) | 44.7 µM (inactive) |
| N=C(N)Nc1ccc(CC(N)C(=O)NCC(=O)C(CC(=O)O)c2ncc(NC(=O)C(F)(F)F)o2)cc1 (configuration not stated) | > 25 µM | > 25 µM (inactive) | > 25 µM (inactive) | > 25 µM (inactive) | > 25 µM (inactive) | > 25 µM (inactive) | > 25 µM (inactive) | > 25 µM (inactive) | > 25 µM (inactive) | > 25 µM (inactive) | > 25 µM (inactive) | > 25 µM (inactive) | > 25 µM (inactive) | > 25 µM (inactive) | > 25 µM (inactive) | > 25 µM (inactive) | > 25 µM (inactive) | – | – |
| CCC1(O)CC(OC2CC(N(C)C)C(OC3CC(O)C(OC4CCC(=O)C(C)O4)C(C)O3)C(C)O2)c2c(O)c3c(c(O)c2C1C(=O)OC)C(=O)c1cccc(O)c1C3=O (configuration not stated) | 0.00719 µM | 0.00405 µM (active) | 0.0106 µM (active) | – | 0.0181 µM (active) | 0.0172 µM (active) | 0.00219 µM (active) | 0.00176 µM (active) | 0.00327 µM (active) | 0.000434 µM (active) | 0.00508 µM (active) | 0.00221 µM (active) | 0.0059 µM (active) | 0.015 µM (active) | 0.00502 µM (active) | 0.00344 µM (active) | 0.00586 µM (active) | 0.00897 µM (active) | 0.00482 µM (active) |
| CC(=O)OC1CCC2OOC1O2 (configuration not stated) | > 100 µM | > 100 µM (inactive) | > 100 µM (inactive) | – | – | > 100 µM (inactive) | > 100 µM (inactive) | > 100 µM (inactive) | > 100 µM (inactive) | > 100 µM (inactive) | > 100 µM (inactive) | – | > 100 µM (inactive) | > 100 µM (inactive) | – | > 100 µM (inactive) | > 100 µM (inactive) | > 100 µM (inactive) | – |
| CC(CCC(=O)O)c1ccc(Br)cc1 (configuration not stated) | > 100 µM | > 100 µM (inactive) | > 100 µM (inactive) | – | – | > 100 µM (inactive) | > 100 µM (inactive) | > 100 µM (inactive) | > 100 µM (inactive) | > 100 µM (inactive) | > 100 µM (inactive) | – | > 100 µM (inactive) | > 100 µM (inactive) | – | > 100 µM (inactive) | > 100 µM (inactive) | > 100 µM (inactive) | – |
| [O-][S+](Nc1ccccc1)c1cccc(Cl)c1 (configuration not stated) | 29.6 µM | 42.8 µM (inactive) | > 100 µM (inactive) | – | 66.1 µM (inactive) | 11.3 µM (inactive) | 65.3 µM (inactive) | 50.4 µM (inactive) | > 100 µM (inactive) | 42.5 µM (inactive) | 60.4 µM (inactive) | 86.3 µM (inactive) | > 100 µM (inactive) | > 100 µM (inactive) | 65.9 µM (inactive) | 34.2 µM (inactive) | 48.6 µM (inactive) | 25.5 µM (inactive) | > 100 µM (inactive) |
| COC(=O)[C@@]1(C)/C(=N/NS(=O)(=O)c2ccc(C)cc2)CCC[C@@H]1C | 16.3 µM | > 100 µM (inactive) | > 100 µM (inactive) | – | – | > 100 µM (inactive) | > 100 µM (inactive) | 27.8 µM (inactive) | 69.2 µM (inactive) | 34 µM (inactive) | > 100 µM (inactive) | – | > 100 µM (inactive) | > 100 µM (inactive) | – | > 100 µM (inactive) | 6.37 µM (inactive) | 19.8 µM (inactive) | – |
| Nc1nc(N)nc(-c2cnccn2)n1 | > 100 µM | – | > 100 µM (inactive) | > 100 µM (inactive) | 53 µM (inactive) | > 100 µM (inactive) | > 100 µM (inactive) | > 100 µM (inactive) | > 100 µM (inactive) | > 100 µM (inactive) | > 100 µM (inactive) | – | > 100 µM (inactive) | > 100 µM (inactive) | > 100 µM (inactive) | > 100 µM (inactive) | – | > 100 µM (inactive) | – |
| Cc1c2cc[n+](C)cc2c(C)c2c1[nH]c1ccc(Oc3ccccc3)cc12 | 4.69 µM | 1.01 µM (active) | 0.518 µM (active) | – | – | 3.18 µM (inactive) | 0.294 µM (active) | 1.38 µM (inactive) | 0.845 µM (active) | – | 5.08 µM (inactive) | – | 1.28 µM (inactive) | – | – | 0.736 µM (active) | – | – | – |
| NCCCCNc1ccc2c(=O)[nH][nH]c(=O)c2c1 | – | > 100 µM (inactive) | > 100 µM (inactive) | – | – | > 100 µM (inactive) | > 100 µM (inactive) | > 100 µM (inactive) | > 100 µM (inactive) | – | > 100 µM (inactive) | – | > 100 µM (inactive) | > 100 µM (inactive) | – | > 100 µM (inactive) | > 100 µM (inactive) | > 100 µM (inactive) | – |
| OCC(O)COCn1cc(Cn2ncc3c(SCc4ccccc4)ncnc32)nn1 (configuration not stated) | > 100 µM | > 100 µM (inactive) | > 100 µM (inactive) | > 100 µM (inactive) | > 100 µM (inactive) | > 100 µM (inactive) | > 100 µM (inactive) | > 100 µM (inactive) | > 100 µM (inactive) | – | > 100 µM (inactive) | – | > 100 µM (inactive) | > 100 µM (inactive) | > 100 µM (inactive) | > 100 µM (inactive) | > 100 µM (inactive) | – | – |
| CC/C=C/c1cc2c(cc1O)CCC1C2CC[C@@]2(C)C1CC[C@@H]2O (some centres not stated) | 4.33 µM | 1.56 µM (inactive) | – | – | 3.53 µM (inactive) | 14.7 µM (inactive) | 0.34 µM (active) | 1.73 µM (inactive) | 14 µM (inactive) | 0.82 µM (active) | 6.03 µM (inactive) | 1.65 µM (inactive) | 10.4 µM (inactive) | 1.03 µM (active) | 3.49 µM (inactive) | 4.32 µM (inactive) | – | 0.34 µM (active) | 0.199 µM (active) |
| c1ccc(NC2(c3nnnn3C3CCCCC3)CCNCC2)cc1 | 21.2 µM | 19.5 µM (inactive) | 15.9 µM (inactive) | – | 39.6 µM (inactive) | 11.7 µM (inactive) | 17.9 µM (inactive) | 20.4 µM (inactive) | 19.8 µM (inactive) | 15.2 µM (inactive) | 11.9 µM (inactive) | 14.1 µM (inactive) | 15.7 µM (inactive) | 16.8 µM (inactive) | – | 15.3 µM (inactive) | 14.1 µM (inactive) | 17.5 µM (inactive) | – |
| O=c1c2ccccc2nc(N/N=C/c2ccc(Cl)cc2)n1-c1ccccc1 | 89.9 µM | > 100 µM (inactive) | 38.1 µM (inactive) | – | 93.3 µM (inactive) | > 100 µM (inactive) | > 100 µM (inactive) | > 100 µM (inactive) | > 100 µM (inactive) | 75 µM (inactive) | 62.4 µM (inactive) | – | > 100 µM (inactive) | > 100 µM (inactive) | 49.5 µM (inactive) | – | > 100 µM (inactive) | > 100 µM (inactive) | 50.8 µM (inactive) |
| COc1ccc2nc(NC(=O)C(=O)C(C#N)c3ccc([N+](=O)[O-])cc3)sc2c1 (configuration not stated) | > 100 µM | > 100 µM (inactive) | > 100 µM (inactive) | – | – | > 100 µM (inactive) | > 100 µM (inactive) | – | > 100 µM (inactive) | > 100 µM (inactive) | 11.2 µM (inactive) | – | > 100 µM (inactive) | > 100 µM (inactive) | – | > 100 µM (inactive) | – | – | – |
